Assay results taken from patent publication US4036834A, “Derivatives of 7-(α-hydroxy-substituted pyridyl carboxamido-α p h Δ^3 -cephem-4-carboxylic acid” (Yamanouchi Pharmaceutical Co., Ltd., priority 1974, dated 1977).
Values after ≈ are worked out from the molar mass of the structure shown. Read-outs that look alike come from different tables or passages of the source.

How the values were obtained:
Proteus vulgaris OXK US = assay: MIC against Proteus vulgaris OXK US; type: cell-based
Text: (§1) Now, for illustrating the excellent pharmacological effects of the compounds of this invention, the values of MIC (γ/ml) of the compounds against various bacteria are shown in the following table, the compounds of this invention are shown by example numbers.
1: Proteus vulgaris OXK US

proteus vulgaris OX 19US = assay: MIC against proteus vulgaris OX 19US; type: cell-based; conditions: OX19US
Text: as §1
2. proteus vulgaris OX 19US

[1] = system: pseudomonas aeruginosa ATCC 8689; assay: MIC against pseudomonas aeruginosa ATCC 8689; type: cell-based; conditions: ATCC8689
Text: as §1
4: pseudomonas aeruginosa ATCC 8689

[2] = system: escherichia coli Kauffman 0-1; assay: MIC against escherichia coli Kauffman 0-1; type: cell-based
Text: as §1
7: escherichia coli Kauffman 0-1

[3] = system: Klebsiella pneumoniae ATCC 10031; assay: MIC against Klebsiella pneumoniae ATCC 10031; type: cell-based; conditions: ATCC10031
Text: as §1
8: Klebsiella pneumoniae ATCC 10031

salmonella typhi H901W = assay: microbe, parasite or virus in culture; type: cell-based; conditions: Salmonella enterica
salmonella enteritidis = assay: MIC against salmonella enteritidis; type: cell-based; conditions: Salmonella enterica
Text: as §1
10: salmonella enteritidis

[4] = system: Shigella flexnori 2a 1675; assay: MIC against Shigella flexnori 2a 1675; type: cell-based; conditions: 2A1675
Text: as §1

Shigella sonnei II 37148 = assay: MIC against Shigella sonnei II 37148; type: cell-based; conditions: II37148
Text: as §1

[5] = system: bacillus megatherium 10778; assay: MIC against bacillus megatherium 10778; type: cell-based
Text: as §1

[6] = system: Bacillus subtilis ATCC 6633; assay: MIC against Bacillus subtilis ATCC 6633; type: cell-based; conditions: ATCC6633
Text: as §1
14: Bacillus subtilis ATCC 6633

[7] = system: micrococcus flavus ATCC 10240; assay: MIC against micrococcus flavus ATCC 10240; type: cell-based; conditions: ATCC10240
Text: as §1

[8] = system: staphylococcus aureus 209P; assay: MIC against staphylococcus aureus 209P; type: cell-based
Text: as §1
16: staphylococcus aureus 209P

[9] = system: staphylococcus Shimanishi; assay: MIC against staphylococcus Shimanishi; type: cell-based
Text: as §1
17. staphylococcus Shimanishi

Staphylococcus Onuma = assay: MIC against Staphylococcus Onuma; type: cell-based
Text: as §1

[10] = system: proteus mirabilis IFM OM-19; assay: MIC against proteus mirabilis IFM OM-19; type: cell-based; conditions: IFMOM19
Text: as §1
3. proteus mirabilis IFM OM-19

[11] = system: pseudomonas aeruginosa 99 (Gentamycin resistant); assay: MIC against pseudomonas aeruginosa 99 (Gentamycin resistant); type: cell-based
Text: as §1
5: pseudomonas aeruginosa 99 (Gentamycin resistant)

[12] = system: Pseudomonas ovalis IAM 1002; assay: MIC against Pseudomonas ovalis IAM 1002; type: cell-based; conditions: Pseudomonas putida, IAM1002; Pseudomonas ovalis IAM 1002; read-out: MIC
Text: as §1
6: Pseudomonas ovalis IAM 1002

[13] = water solubility, naked-eye observation of solutions; type: physicochemical
Text: Then, the experimental results showing the excellent water solubility of the compounds of this invention are illustrated in the following table, the results being the observation results by the naked eyes of the solutions thereof in each concentration as shown in the table.

[14] = Proteus vulgaris OXK US, read-out: MIC
[15] = proteus vulgaris OX 19US, read-out: MIC
[16] = pseudomonas aeruginosa ATCC 8689, read-out: MIC
[17] = escherichia coli Kauffman 0-1, read-out: MIC
[18] = Klebsiella pneumoniae ATCC 10031, read-out: MIC
[19] = salmonella enteritidis, read-out: MIC
[20] = bacillus megatherium 10778, read-out: MIC
[21] = Bacillus subtilis ATCC 6633, read-out: MIC
[22] = micrococcus flavus ATCC 10240, read-out: MIC
[23] = staphylococcus Shimanishi, read-out: MIC
[24] = Staphylococcus Onuma, read-out: MIC
[25] = pseudomonas aeruginosa 99 (Gentamycin resistant), read-out: MIC

Structure (SMILES) | MIC ([1]; Pseudomonas aeruginosa) | MIC ([2]; Escherichia coli) | MIC ([3]; Klebsiella pneumoniae) | MIC (salmonella typhi H901W) | MIC (salmonella enteritidis; ENTERITIDIS) | MIC [4] | MIC (Shigella sonnei II 37148) | MIC (Staphylococcus Onuma; Staphylococcus) | MIC (Proteus vulgaris OXK US; [14]) | MIC (proteus vulgaris OX 19US; [15]) | MIC [10] | MIC [1, 16] | MIC [12] | MIC [2, 17] | MIC [5, 20] | MIC [6, 21] | MIC [7, 22] | MIC ([8]; read-out: MIC) | MIC [9, 23] | MIC [11, 25] | further results
CC1=C(C(=O)O)N2C(=O)[C@@H](NC(=O)[C@H](N)c3ccccc3)[C@H]2SC1 [Cephalexin, reference compound] | > 100 µg/mL | 10 µg/mL (≈ 28.8 µM) | 3 µg/mL (≈ 8.64 µM) | 6.25 µg/mL (≈ 18 µM) | 6.25 µg/mL (≈ 18 µM) | 6.25 µg/mL (≈ 18 µM) | 6.25 µg/mL (≈ 18 µM) | 12.5 µg/mL (≈ 36 µM) | – | – | – | – | – | – | – | – | – | – | – | – | MIC (Proteus vulgaris OXK US; Proteus vulgaris): 30 µg/mL (≈ 86.4 µM); MIC (proteus vulgaris OX 19US; Proteus vulgaris): 30 µg/mL (≈ 86.4 µM); MIC ([5]; Bacillus, 10778): 0.78 µg/mL (≈ 2.25 µM); MIC ([6]; Bacillus subtilis): 0.78 µg/mL (≈ 2.25 µM); MIC ([7]; Micrococcus flavus): 1.56 µg/mL (≈ 4.49 µM); MIC [8]: 1.56 µg/mL (≈ 4.49 µM); MIC ([9]; Staphylococcus): 6.25 µg/mL (≈ 18 µM)
CC(=O)OCC1=C(C(=O)O)N2C(=O)[C@@H](NC(=O)[C@H](N)c3ccccc3)[C@H]2SC1 [Cephaloglycin, reference compound] | – | – | – | 3 µg/mL (≈ 7.4 µM) | – | 3 µg/mL (≈ 7.4 µM) | 10 µg/mL (≈ 24.7 µM) | – | 25 µg/mL (≈ 61.7 µM) | 100 µg/mL (≈ 247 µM) | 100 µg/mL (≈ 247 µM) | > 100 µg/mL | > 100 µg/mL | 100 µg/mL (≈ 247 µM) | 1 µg/mL (≈ 2.47 µM) | 0.3 µg/mL (≈ 0.74 µM) | 0.3 µg/mL (≈ 0.74 µM) | 1 µg/mL (≈ 2.47 µM) | 3 µg/mL (≈ 7.4 µM) | – | MIC ([11]; Pseudomonas aeruginosa): > 100 µg/mL; MIC [3, 18]: 25 µg/mL (≈ 61.7 µM); MIC (salmonella enteritidis; [19]): 3 µg/mL (≈ 7.4 µM); MIC (Staphylococcus Onuma; [24]): 3 µg/mL (≈ 7.4 µM)
CC(=O)OCC1=C(C(=O)O)N2C(=O)[C@@H](NC(=O)Cc3cccs3)[C@H]2SC1 [Cephalothin, reference compound] | > 100 µg/mL | 3.13 µg/mL (≈ 7.9 µM) | 0.78 µg/mL (≈ 1.97 µM) | 1.56 µg/mL (≈ 3.93 µM) | 0.39 µg/mL (≈ 0.984 µM) | 6.25 µg/mL (≈ 15.8 µM) | 6.25 µg/mL (≈ 15.8 µM) | 0.39 µg/mL (≈ 0.984 µM) | – | – | – | – | – | – | – | – | – | – | – | – | MIC (proteus vulgaris OX 19US; Proteus vulgaris): 12.5 µg/mL (≈ 31.5 µM); MIC ([11]; Pseudomonas aeruginosa): > 100 µg/mL; MIC ([6]; Bacillus subtilis): < 0.09 µg/mL; MIC [8]: 0.19 µg/mL (≈ 0.479 µM); MIC ([9]; Staphylococcus): 0.39 µg/mL (≈ 0.984 µM)
Cc1nnc(SCC2=C(C(=O)O)N3C(=O)[C@@H](NC(=O)Cn4cnnn4)[C@H]3SC2)s1 [Cephazolin, reference compound] | – | 1.56 µg/mL (≈ 3.43 µM) | 1.56 µg/mL (≈ 3.43 µM) | 1.56 µg/mL (≈ 3.43 µM) | 1.56 µg/mL (≈ 3.43 µM) | 1.56 µg/mL (≈ 3.43 µM) | 1.56 µg/mL (≈ 3.43 µM) | 1.56 µg/mL (≈ 3.43 µM) | – | 25 µg/mL (≈ 55 µM) | 6.25 µg/mL (≈ 13.8 µM) | > 100 µg/mL | > 100 µg/mL | – | 0.19 µg/mL (≈ 0.418 µM) | 0.19 µg/mL (≈ 0.418 µM) | 0.19 µg/mL (≈ 0.418 µM) | 0.19 µg/mL (≈ 0.418 µM) | 0.78 µg/mL (≈ 1.72 µM) | > 100 µg/mL | MIC (Proteus vulgaris OXK US; Proteus vulgaris): 3.13 µg/mL (≈ 6.89 µM)
Nc1cc(Cl)cc(SCC2=C(C(=O)O)N3C(=O)C(NC(=O)C(NC(=O)c4cccnc4)c4ccccc4)C3SC2)n1 (stereo not drawn) [Contrast, 7-(α-nicotinoylamido-α-phenylacetamido)-3-(2-amino-4-chloropyidin-6-ylthiomethyl)-Δ ^3-cephem-carboxylic acid, reference compound] | – | – | – | – | – | – | – | – | – | – | – | – | – | – | – | – | – | – | – | – | water solubility (appearance of solution by the naked eyes) ([13]; concentration 1%): clear; water solubility (appearance of solution by the naked eyes) ([13]; concentration 5%): slightly turbid; water solubility (appearance of solution by the naked eyes) ([13]; concentration 10%): turbid; water solubility (appearance of solution by the naked eyes) ([13]; concentration 20%): gelled
O=C(O)C1=C(CSc2ccc(S)nn2)CS[C@@H]2[C@H](NC(=O)[C@H](NC(=O)c3cnccc3O)c3ccccc3)C(=O)N12 [Example 1, 7-[D-α-(4-hydroxynicotinoylamido)-α-phenylacetamido]-3-(3-mercaptopyridazin-6-yl)thiomethyl-Δ^3-cephem-4-carboxylic acid] | 100 µg/mL (≈ 164 µM) | 6.25 µg/mL (≈ 10.2 µM) | 6.25 µg/mL (≈ 10.2 µM) | 0.39 µg/mL (≈ 0.639 µM) | 0.39 µg/mL (≈ 0.639 µM) | 6.25 µg/mL (≈ 10.2 µM) | 12.5 µg/mL (≈ 20.5 µM) | 6.25 µg/mL (≈ 10.2 µM) | 0.19 µg/mL (≈ 0.311 µM) | 0.78 µg/mL (≈ 1.28 µM) | 0.39 µg/mL (≈ 0.639 µM) | – | 25 µg/mL (≈ 40.9 µM) | – | 0.39 µg/mL (≈ 0.639 µM) | 0.39 µg/mL (≈ 0.639 µM) | 3.13 µg/mL (≈ 5.13 µM) | 0.39 µg/mL (≈ 0.639 µM) | 1.56 µg/mL (≈ 2.55 µM) | 50 µg/mL (≈ 81.9 µM) | –
CC(=O)Nc1nc(S)nc(SCC2=C(C(=O)O)N3C(=O)[C@@H](NC(=O)[C@H](NC(=O)c4cnccc4O)c4ccccc4)[C@H]3SC2)n1 [Example 4, 7-[D-α-(4-hydroxynicotinoylamido)-α-phenylacetamido]-3-(4-mercapto-6-acetylamino-1,3,5-triazin-2-yl)thiomethyl-Δ^3-cephem-4-carboxylic acid] | – | – | 12.5 µg/mL (≈ 18.7 µM) | 0.39 µg/mL (≈ 0.583 µM) | – | 12.5 µg/mL (≈ 18.7 µM) | 12.5 µg/mL (≈ 18.7 µM) | – | 0.19 µg/mL (≈ 0.284 µM) | 6.25 µg/mL (≈ 9.35 µM) | 0.39 µg/mL (≈ 0.583 µM) | 50 µg/mL (≈ 74.8 µM) | 50 µg/mL (≈ 74.8 µM) | 6.25 µg/mL (≈ 9.35 µM) | 0.39 µg/mL (≈ 0.583 µM) | 0.78 µg/mL (≈ 1.17 µM) | 6.25 µg/mL (≈ 9.35 µM) | 1.56 µg/mL (≈ 2.33 µM) | 6.25 µg/mL (≈ 9.35 µM) | 50 µg/mL (≈ 74.8 µM) | MIC (salmonella enteritidis; [19]): 0.78 µg/mL (≈ 1.17 µM); MIC (Staphylococcus Onuma; [24]): 6.25 µg/mL (≈ 9.35 µM)
Cn1nnnc1SCC1=C(C(=O)O)N2C(=O)C(NC(=O)C(NC(=O)c3cccnc3)c3ccccc3)C2SC1 (stereo not drawn) [Example C-1, 7-(α-nicotinoylamido-α-phenylacetamido)-3-(1-methyl-1H-tetrazle-5-ylthiomethyl)-Δ^3-cephem-4-carboxylic acid, reference compound] | – | – | – | > 100 µg/mL | – | 50 µg/mL (≈ 88.2 µM) | 100 µg/mL (≈ 176 µM) | – | 3.13 µg/mL (≈ 5.52 µM) | – | 12.5 µg/mL (≈ 22.1 µM) | > 100 µg/mL | > 100 µg/mL | 50 µg/mL (≈ 88.2 µM) | 3.13 µg/mL (≈ 5.52 µM) | 3.13 µg/mL (≈ 5.52 µM) | 1.56 µg/mL (≈ 2.75 µM) | – | – | > 100 µg/mL | MIC [3, 18]: 12.5 µg/mL (≈ 22.1 µM)
Cc1nnc(SCC2=C(C(=O)O)N3C(=O)C(NC(=O)C(NC(=O)c4cccnc4)c4ccccc4)C3SC2)s1 (stereo not shown) [Example C-2, reference compound] | – | – | – | > 100 µg/mL | – | 50 µg/mL (≈ 85.8 µM) | 100 µg/mL (≈ 172 µM) | – | 6.25 µg/mL (≈ 10.7 µM) | – | 25 µg/mL (≈ 42.9 µM) | > 100 µg/mL | > 100 µg/mL | 100 µg/mL (≈ 172 µM) | 3.13 µg/mL (≈ 5.37 µM) | 1.56 µg/mL (≈ 2.68 µM) | 1.56 µg/mL (≈ 2.68 µM) | – | – | > 100 µg/mL | MIC [3, 18]: 12.5 µg/mL (≈ 21.5 µM)
